Values after ≈ are worked out from the molar mass of the structure shown.
Key:
Assay type in all cases: cell-based
[1] = tested on: Faecalibacterium prausnitzii DSM 17677^T; assay: MIC, liquid medium microdilution (CLSI), standard strain; conditions: for MIC breakpoint category (S/I/R): DSM 17677^T
[2] = tested on: Faecalibacterium prausnitzii EB-FPDK11 strain; assay: MIC, liquid medium microdilution (CLSI), EB-FPDK11; conditions: for MIC breakpoint category (S/I/R): EB-FPDK11; for resistance or susceptibility of the EB-FPDK11 strain to the agent (in words): text summary of Table 4
[3] = tested on: Bacteroides thetaiotaomicron ATCC 29741; assay: MIC, liquid medium microdilution (CLSI), QC strain; conditions: ATCC29741

With `Cc1ncc([N+](=O)[O-])n1CCO` [MTZ, metronidazole] the “MIC breakpoint category (S/I/R)” value ([1]; MTZ breakpoints) was “S (≤8)”, the “MIC breakpoint category (S/I/R)” value ([2]; MTZ breakpoints) was 5 and the “resistance or susceptibility of the EB-FPDK11 strain to the agent (in words)” value (from here on “resistance or susceptibility”) [2] was “susceptibility”.
For `C[C@@H](O)[C@H]1C(=O)N2C(C(=O)O)=C(S[C@@H]3CN[C@H](C(=O)N(C)C)C3)[C@H](C)[C@H]12` [MEM, meropenem], the “MIC breakpoint category (S/I/R)” value ([1]; MEM breakpoints) was “R (≥16)”, the “MIC breakpoint category (S/I/R)” value ([2]; MEM breakpoints) was “R (≥16)” and the “resistance or susceptibility” value [2] was “resistance”. It also gave an MIC [3] of 0.5 µg/mL (≈ 1.3 µM).
With `CO/N=C(\C(=O)N[C@@H]1C(=O)N2C(C(=O)O)=CCS[C@H]12)c1csc(N)n1` [CTZ, ceftizoxime] the “MIC breakpoint category (S/I/R)” value ([1]; CTZ breakpoints) was “I (64)”, the “MIC breakpoint category (S/I/R)” value ([2]; CTZ breakpoints) was “R (≥128)” and the “resistance or susceptibility” value [2] was “resistance”.
In the case of `CCC[C@@H]1C[C@@H](C(=O)N[C@@H]([C@H]2O[C@H](SC)[C@H](O)[C@@H](O)[C@H]2O)[C@H](C)Cl)N(C)C1` [CLI, clindamycin], the “MIC breakpoint category (S/I/R)” value ([1]; CLI breakpoints) is reported as “(S) (≤2)” and the “MIC breakpoint category (S/I/R)” value ([2]; CLI breakpoints) is reported as “(S) (≤2)”.
For `COc1c(N2C[C@@H]3CCCN[C@@H]3C2)c(F)cc2c(=O)c(C(=O)O)cn(C3CC3)c12` [MXF, moxifloxacin], the “MIC breakpoint category (S/I/R)” value ([1]; MXF breakpoints) was “R (≥8)” and the “MIC breakpoint category (S/I/R)” value ([2]; MXF breakpoints) was “R (≥8)”.
With `O=C(N[C@H](CO)[C@H](O)c1ccc([N+](=O)[O-])cc1)C(Cl)Cl` [CHL, chloramphenicol] the “MIC breakpoint category (S/I/R)” value ([1]; CHL breakpoints) was “R (≥32)”, the “MIC breakpoint category (S/I/R)” value ([2]; CHL breakpoints) was “S (≤8)” and the “resistance or susceptibility” value [2] was “susceptibility”.
With Piperacillin-tazobactam [PTZ] the “MIC breakpoint category (S/I/R)” value ([1]; PTZ breakpoints) was “R (≥128/4)”, the MIC ([1]; test strain DSM 17677^T) was 256/4 and the “MIC breakpoint category (S/I/R)” value ([2]; PTZ breakpoints) was “R (≥128/4)”. For the same compound, the MIC ([2]; test strain EB-FPDK11) was 256/4 and the “resistance or susceptibility” value [2] was “resistance”.

Source: patent US12514882B2, “Faecalibacterium prausnitzii strain EB-FPDK11 and use thereof” (ENTEROBIOME INC., priority 2020, dated 2026)
